Test results: publication PMC10539501 (Nature Communications, 2023)
Where two headings read alike, the source gives them in different places. Starred links: 1 amine or outer side, 2 acyl side, 3 side chain; linkers in the order of their positions; H or OH if unused. Non-standard residues stand in square brackets, D forms with d. Residues, ends and D or L forms follow the SMILES beside them. X1 = CC(C)C[C@H](NC(=S)[C@H](Cc1ccc(O)cc1)N[*:1])C(=O)[*:2]; X9 = O=C([C@@H]1CCCN1C(=S)[C@H](Cc1ccccc1)N[*:1])[*:2]

Assays:
[1] = assay type: physicochemical
[2] = PAMPA passive permeability; assay type: in vitro ADME;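 note: passive permeability across an artificial membrane in 96-well pre-coated PAMPA plates, which lack transporters and efflux systems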
Description: Encouraged by this, the passive permeability of the analogs was evaluated using an artificial membrane (PAMPA), which measures permeability of compounds in the absence of transporters and efflux systems[32].
96-well BD Corning® pre-coated PAMPA plates were used following the supplier’s protocol, details in Supplementary Information.

[3] = assay type: physicochemical; remark: listed apart in the source
Description: Since reduced solvation of S also contributes to the lipophilicity of the thioamidated peptides, we sought to estimate the global desolvation of the macrocyclic peptides, which is affected by solvation of both N(H) and C(S). […] Thus, we evaluated the desolvation potential of the cyclic peptides by determining the distribution coefficients in heptane-ethylene glycol (logDh/e), a solvent system that provides an experimental estimate of desolvation or hydrogen bond potential[38].

in vitro [4] = assay type: in vitro ADME, human
Description: (§1) The Caco-2 cell (HTB-37^TM from ATCC, procured from NCCS, Pune) monolayer was washed and pre-incubated at 37 °C and 5% CO2 for 30 min with HBSS-HEPES buffer containing 1% DMSO prior to experimentation. The assay was performed 21 days post-seeding of cells. TEER values were measured before starting and after the completion of the assay. Acceptor and donor well concentrations of the peptides and controls were assessed through LC-MS/MS.

Caco-2 cells = assay: in vitro; assay type: in vitro ADME, human; settings: Caco-2
Description: as §1

pepsin [5] = target: T1, pepsin (Sus scrofa, UniProt P00791); settings: pH 1.2
Description: (§2) A stability assessment of the peptides was done in simulated gastric (SGF) and intestinal (SIF) fluids and human liver microsomes. The degradation kinetics of the aliquoted samples at desired time points were analyzed through RP-HPLC.

[6] = rat, in vivo, po, 10 mg/kg
Description: (§3) All animals were housed individually in the animal facility at Anthem Biosciences Pvt. Ltd and were acclimatized for 3 days. All animals were fasted overnight before dosing, whereas access to water was provided ad libitum. Peptides were administered orally and via s.c. route and blood samples were collected at different time points through a jugular vein catheter.

in vivo [7] = settings: male, Wistar, rat
Description: as §3

physchem = settings: pH 7.4
in vitro [8] = settings: both, human, plasma
Description: (§4) Blood was freshly drawn from three healthy adults, two male and one person of 26–28 year old. […] The plasma was separated by centrifugation. […] For checking metabolic stability, the required volume of plasma was pre-incubated at 37 °C prior to the experiment for 2 min, followed by spiking with the peptides. At different time points, plasma was aliquoted. The supernatant was separated and used for RP-HPLC quantification. Rapid Equilibrium Dialysis (RED) assay was performed to assess the plasma protein binding of the peptides following the supplier’s protocol.

pepsin [9] = target: T1, pepsin; assay: in vitro; settings: simulated gastric fluid, pH 1.2
Description: as §2

in vitro [10] = settings: pig, simulated intestinal fluid
Description: We next assessed the stability of the macrocyclic peptides in Simulated Intestinal Fluid (SIF)[42], comprising of pancreatin, which is a mixture of several proteases produced by the exocrine cells of the porcine pancreas.
as §2

in vitro [11] = settings: human, microsomes
Description: as §2

in vitro [12] = settings: both, human, plasma; remark: listed apart in the source
Description: as §4

[13] = Retention in hydrophobic C18 column by HPLC; settings: Supplementary Fig 3d, logD7.4 vs tR
[14] = Octanol-water distribution coefficient (logD7.4); settings: octanol-water, pH 7.4; value plotted against PAMPA (Supplementary Fig 12)
[15] = HDX of amide protons by NMR in DMSO-d6:D2O (8:2)
Description: (§5) As hydrogen bonding and solvation of NH groups play an important role in the permeability of macrocycles, we determined the solvent accessibility of individual amide protons in 10 and 10a–10f by hydrogen-deuterium exchange (HDX) through NMR spectroscopy (Figs. 2a–c).
(§6) Spectra were recorded on a Bruker AV 500 MHz spectrometer at 25 °C.

[16] = HDX of amide protons by NMR in CDCl3:CD3OD (8:2)
Description: as §5, §6

SSTR2 = target: T2, SSTR2 (Homo sapiens, UniProt P30874); assay: GloSensor assay, inhibition of forskolin-induced cAMP production; assay type: cell-based
T2 construct: expressed in transfected cells; host or cells: HEK-293T (CRL-3216)

SSTR5 = target: T3, SSTR5 (Homo sapiens, UniProt P35346); assay: as above; assay type: cell-based
T3 construct: expressed in transfected cells; host or cells: HEK-293T (CRL-3216)
Description: HEK-293T cells (CRL-3216 from ATCC, procured from NCCS, Pune) were co-transfected with human somatostatin receptor subtypes 2 & 5, plasmid cDNA, and cAMP biosensor (pGloSensorTM-22F plasmid; Promega Corp.) using PEImax. Ligand incubation was followed by the addition and incubation of forskolin (FSK) to the plate. Dose-dependent inhibition of forskolin-induced cAMP production by the peptide ligands was measured using a luminescence plate reader. An elaborate description of the assay setup has been provided in Supplementary Information.

in vivo [17] = settings: male, rat, sc; for half-life: Sprague-Dawley
Description: Subsequently, we selected 13a, 13b, 13d, and 13e for assessing their plasma exposure post single dose subcutaneous injection into male Sprague Dawley rats.
as §3

[18] = tested on: growth hormone (GH) release; assay: In vivo inhibition of growth hormone release (sandwich ELISA); design: species or system rats
Description: In vivo inhibition of GH. Finally, we estimated the in vivo efficacy of 13 and the thioamidated analogs 13b, 13d, and 13e in suppressing the release of growth hormone (GH) post subcutaneous injection at 250 μg/kg dosage (Fig. 7e). 13a was also included as a negative control to assess its effect on GH release. The rats were bled from their orbital sinus, and the plasma GH levels were evaluated through sandwich ELISA. […] This correlates well with the high plasma concentration of 13 at the initial time points and a rapid drop within 2 h of s.c. administration (Fig. 7c). […] In contrast, the inhibitory effect lasts longer in 13b, 13d, and 13e showing a significant reduction in plasma GH levels within 24–48 h (Fig. 7h). […] The rapid drop in plasma concentration of 13 is responsible for its least in vivo efficacy.
Animal housing and acclimatization were done at Central Animal Facility, IISc Bangalore, as mentioned in the previous section, following protocols from the IEAC and CPCSEA. […] Samples were processed as discussed in Supplementary Information, and sandwich ELISA was performed to measure the growth hormone level in blood plasma. For acute toxicity, after peptide injection (s.c.), blood samples were collected on the 14th day for liver and kidney function tests.

[19] = 20% CD3OD in CDCl3, % remaining after 24 hours
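Throughout, for Papp A-B avg (second block): Caco-2 monolayers used 21 days after seeding in HBSS-HEPES buffer with 1% DMSO, donor and acceptor levels quantified by LC-MS/MS, TEER checked before and after.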
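Throughout, for Papp A-B set 1 (second block): Caco-2 monolayers used 21 days after seeding in HBSS-HEPES buffer with 1% DMSO, donor and acceptor levels quantified by LC-MS/MS, TEER checked before and after.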
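Throughout, for Papp A-B set 2 (second block): Caco-2 monolayers used 21 days after seeding in HBSS-HEPES buffer with 1% DMSO, donor and acceptor levels quantified by LC-MS/MS, TEER checked before and after.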
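Throughout, for Papp B-A avg (second block): Caco-2 monolayers used 21 days after seeding in HBSS-HEPES buffer with 1% DMSO, donor and acceptor levels quantified by LC-MS/MS, TEER checked before and after.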

T1 sequence (P00791 60-385): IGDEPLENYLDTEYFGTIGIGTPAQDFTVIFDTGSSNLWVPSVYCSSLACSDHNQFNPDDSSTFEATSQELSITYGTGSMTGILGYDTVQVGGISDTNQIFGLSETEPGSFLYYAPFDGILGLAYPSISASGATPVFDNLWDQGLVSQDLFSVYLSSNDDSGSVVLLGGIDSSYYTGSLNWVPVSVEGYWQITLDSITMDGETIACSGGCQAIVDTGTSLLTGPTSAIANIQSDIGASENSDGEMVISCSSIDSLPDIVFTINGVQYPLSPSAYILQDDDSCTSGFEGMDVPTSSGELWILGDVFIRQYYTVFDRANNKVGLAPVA
T2 sequence (P30874 whole entry): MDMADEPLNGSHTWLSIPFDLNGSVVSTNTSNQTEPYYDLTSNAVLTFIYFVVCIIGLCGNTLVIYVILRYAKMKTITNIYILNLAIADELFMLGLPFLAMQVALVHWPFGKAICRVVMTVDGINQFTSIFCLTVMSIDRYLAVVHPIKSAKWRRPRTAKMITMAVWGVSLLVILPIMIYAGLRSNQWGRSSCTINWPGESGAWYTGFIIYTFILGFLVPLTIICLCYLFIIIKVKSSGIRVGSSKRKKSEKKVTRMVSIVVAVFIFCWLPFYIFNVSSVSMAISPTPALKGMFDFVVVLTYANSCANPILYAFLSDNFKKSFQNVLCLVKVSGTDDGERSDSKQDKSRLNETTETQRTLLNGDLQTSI
T3 sequence (P35346 whole entry): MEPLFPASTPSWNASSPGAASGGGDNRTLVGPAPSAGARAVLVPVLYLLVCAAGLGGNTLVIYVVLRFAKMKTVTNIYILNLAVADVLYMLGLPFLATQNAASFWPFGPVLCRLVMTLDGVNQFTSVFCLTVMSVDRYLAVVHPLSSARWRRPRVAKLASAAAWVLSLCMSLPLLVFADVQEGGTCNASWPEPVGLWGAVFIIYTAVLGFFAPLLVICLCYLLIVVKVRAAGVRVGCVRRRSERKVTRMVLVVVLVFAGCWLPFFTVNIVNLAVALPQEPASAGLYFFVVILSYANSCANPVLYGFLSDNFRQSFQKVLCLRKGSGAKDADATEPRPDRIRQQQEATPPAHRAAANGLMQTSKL
Description for human liver microsomes: as §2
Description for plasma proteins: as §4

CC(C)C[C@@H]1NC(=O)[C@@H](CC(C)C)NC(=O)[C@H](CC(C)C)NC(=S)[C@H](Cc2ccc(O)cc2)NC(=O)[C@H]2CCCN2C(=O)[C@H](CC(C)C)NC1=O [10e] (cyclo(LL[dP][X1][dL]))
% solubility [1]: 14% | Pe Avg [2]: 7.4 ×10⁻⁶ cm/s | Pe set1 [2]: 7.43 ×10⁻⁶ cm/s | Pe set2 [2]: 6.36 ×10⁻⁶ cm/s | Pe set3 [2]: 8.29 ×10⁻⁶ cm/s | Papp ([2]; Pe Avg): 7.4 ×10⁻⁶ cm/s | logD heptane ethylene glycol [3]: 0.94 | Papp A→B (in vitro [4]; Caco-2, Papp A-B + Elacridar avg): 6.1 ×10⁻⁶ cm/s | Papp A→B (in vitro [4]; Caco-2, Papp A-B avg): 2.01 ×10⁻⁶ cm/s | Papp B→A (in vitro [4]; Caco-2, Papp B-A + Elacridar avg): 9.5 ×10⁻⁶ cm/s | Papp B→A (in vitro [4]; Caco-2, Papp B-A avg): 37.6 ×10⁻⁶ cm/s | Papp A-B avg (second block) (Caco-2 cells): 2.01 ×10⁻⁶ cm/s | Papp A-B set 1 (second block) (Caco-2 cells): 2.06 ×10⁻⁶ cm/s | Papp A-B set 2 (second block) (Caco-2 cells): 1.96 ×10⁻⁶ cm/s | Papp B-A avg (second block) (Caco-2 cells): 37.6 ×10⁻⁶ cm/s | Papp B-A set 1 (second block) (Caco-2 cells): 38.6 ×10⁻⁶ cm/s | Papp B-A set 2 (second block) (Caco-2 cells): 36.7 ×10⁻⁶ cm/s | Protein binding set1 (plasma proteins): 100% | Protein binding set2 (plasma proteins): 95% | Protein binding set3 (plasma proteins): 100% | Half lives (SGF) set1 (pepsin [5]): 259 min | Half lives (human liver microsomes): 24.8 | AUClast p.o [6]: 359.5 ng·h/mL | time over which the peptide is detectable in plasma [6]: ≥ 8 h | AUC(0-t) (in vivo [7]; iv): 2280 ng·h/mL | Cmax (in vivo [7]; iv): 2660 ng/mL | MRT (in vivo [7]; iv): 1.5 h | Vd (in vivo [7]; iv): 0.7 L/kg | clearance (in vivo [7]; iv): 7.5 mL/min/kg | bioavailability (in vivo [7]; po): 1.6% | AUC(0-t) (in vivo [7]; po, 10 mg/kg): 360 ng·h/mL | Cmax (in vivo [7]; po, 10 mg/kg): 47.2 ng/mL | MRT (in vivo [7]; po, 10 mg/kg): 5.9 h | level at 3 h (in vivo [7]; po, 10 mg/kg): 32.6 ng/mL | logD (physchem): 1.45 | fraction unbound (in vitro [8]): 0.01 | half-life (pepsin [9]): 3.83 h | remaining at 5 min (pepsin [9]): 82% | remaining at 10 min (pepsin [9]): 78% | remaining at 20 min (pepsin [9]): 73% | remaining at 0.5 h (pepsin [9]): 66% | remaining at 1 h (pepsin [9]): 61% | remaining at 2 h (pepsin [9]): 58% | remaining at 4 h (pepsin [9]): 49% | remaining at 8 h (pepsin [9]): 41% | remaining at 12 h (pepsin [9]): 35% | remaining at 24 h (pepsin [9]): 24% | half-life (in vitro [10]): 4.02 h | remaining at 10 min (in vitro [10]): 76.6% | remaining at 0.5 h (in vitro [10]): 68.3% | remaining at 1 h (in vitro [10]): 62.8% | remaining at 2 h (in vitro [10]): 58.3% | remaining at 4 h (in vitro [10]): 49.7% | remaining at 8 h (in vitro [10]): 40.9% | remaining at 12 h (in vitro [10]): 27.5% | remaining at 24 h (in vitro [10]): 19.9% | microsomal CLint (in vitro [11]): 56.5 µL/min/mg | remaining at 5 min (in vitro [11]): 97% | remaining at 10 min (in vitro [11]): 70% | remaining at 20 min (in vitro [11]): 55% | remaining at 0.5 h (in vitro [11]): 47% | remaining at 0.75 h (in vitro [11]): 37% | remaining at 1 h (in vitro [11]): 27% | half-life (in vitro [12]): 26 h | remaining at 1 h (in vitro [12]): 90% | remaining at 3 h (in vitro [12]): 82% | remaining at 5 h (in vitro [12]): 84% | remaining at 7 h (in vitro [12]): 76% | remaining at 9 h (in vitro [12]): 67% | remaining at 12 h (in vitro [12]): 61% | remaining at 24 h (in vitro [12]): 50% | remaining at 36 h (in vitro [12]): 43% | remaining at 48 h (in vitro [12]): 32% | remaining at 60 h (in vitro [12]): 25% | remaining at 72 h (in vitro [12]): 12% | tR [13]: 13.5 min | logD7.4 [14]: 1.65 | Half-life of D-Leu1 amide proton (HDX) ([15]; HDX by NMR, 20% D2O in DMSO-d6): 0.767 h | Half-life of Leu2 amide proton (HDX) ([15]; HDX by NMR, 20% D2O in DMSO-d6): 0.6 h | Half-life of Leu3 amide proton (HDX) ([15]; HDX by NMR, 20% D2O in DMSO-d6): 3.18 h | Half-life of Leu6 amide proton (HDX) ([15]; HDX by NMR, 20% D2O in DMSO-d6): 10.8 h | Half-life of Tyr5 amide proton (HDX) ([15]; HDX by NMR, 20% D2O in DMSO-d6): 0.583 h | Half-life of D-Leu1 amide proton (HDX) ([16]; 20% CD3OD in CDCl3): 0.167 h | Half-life of Leu2 amide proton (HDX) ([16]; 20% CD3OD in CDCl3): 2 min | Half-life of Leu3 amide proton (HDX) ([16]; 20% CD3OD in CDCl3): > 24 h | Half-life of Leu6 amide proton (HDX) ([16]; 20% CD3OD in CDCl3): > 24 h | Half-life of Tyr5 amide proton (HDX) ([16]; 20% CD3OD in CDCl3): 3.13 h | % intact NH, Leu3 [16, 19]: 66% | % intact NH, Leu6 [16, 19]: 70%

C[C@@H](O)[C@@H]1NC(=O)[C@H](CCCCN)NC(=O)[C@@H](Cc2c[nH]c3ccccc23)NC(=O)[C@H](Cc2ccccc2)NC(=O)[C@@H]2CCCN2C(=S)[C@H](Cc2ccccc2)NC1=O [13d] (cyclo(F[dW]KT[X9]))
Papp ([2]; Pe): 2.29 ×10⁻⁶ cm/s | logD heptane ethylene glycol [3]: -0.94 | IC50 (SSTR2; read-out: IC50 sstr2): 20.3 ± 11.9 nM | IC50 (SSTR5): > 10000 nM | t1/2 in human blood plasma: 42 h | level at 0.5 h (in vivo [17]; Sprague Dawley): 92 ng/mL | level at 1 h (in vivo [17]; Sprague Dawley): 77 ng/mL | half-life (in vivo [17]): 1.1 ± 0.4 h | logD (physchem): -0.84 | fraction unbound (in vitro [8]): 0.11 | half-life (in vitro [12]): 42 h

C[C@@H](O)[C@@H]1NC(=O)[C@H](CCCCN)NC(=O)[C@@H](Cc2c[nH]c3ccccc23)NC(=O)[C@H](Cc2ccccc2)NC(=O)[C@@H]2CCCN2C(=O)[C@H](Cc2ccccc2)NC1=O [compound 13, cyclo(-D-Trp^1-Lys-Thr-Phe-Pro-Phe^6-)] (cyclo(PF[dW]KTF))
Papp ([2]; Pe): 1.34 ×10⁻⁶ cm/s | logD heptane ethylene glycol [3]: -1.43 | IC50 (SSTR2): 16.6 ± 4.2 nM | IC50 (SSTR5): 105 ± 24.2 nM | AUC 0_24 ([18]; growth hormone AUC 0-24 h, mean of n = 3): 504 ng·h/mL | AUC 0_48 ([18]; growth hormone AUC 0-48 h, mean of n = 3): 1371 ng·h/mL | AUC 24_48 ([18]; growth hormone AUC 24-48 h, mean of n = 3): 817 ng·h/mL | inhibition of unstimulated GH release ([18]; rats, 250 μg/kg s.c., plasma GH by sandwich ELISA over 48 h): significant inhibition | t1/2 in human blood plasma: 15 ± 0.9 h | level at 0.5 h (in vivo [17]; Sprague Dawley): 195 ng/mL | level at 1 h (in vivo [17]; Sprague Dawley): 128 ng/mL | level at 2 h (in vivo [17]; Sprague Dawley, 250 ug/kg): 8 ng/mL | half-life (in vivo [17]): 0.3 ± 0.05 h | logD (physchem): -1.23 | fraction unbound (in vitro [8]): 0.24 | half-life (in vitro [10]): 1.8 h | half-life (in vitro [12]): 14 h | t1/2 for all HNs (HDX) ([15]; HDX experiment by NMR, solvent not stated at the place (Supplementary Fig. 18)): < 5 min | Half-lives (min), amide proton D-Trp1 ([15]; Supplementary Fig 18b, HDX of amide proton of D-Trp1, solvent not given): >5 min | Half-lives (min), amide proton Lys2 ([15]; Supplementary Fig 18b, HDX of amide proton of Lys2, solvent not given): >5 min | Half-lives (min), amide proton Phe4 ([15]; Supplementary Fig 18b, HDX of amide proton of Phe4, solvent not given): >5 min | Half-lives (min), amide proton Phe6 ([15]; Supplementary Fig 18b, HDX of amide proton of Phe6, solvent not given): >5 min | Half-lives (min), amide proton Thr3 ([15]; Supplementary Fig 18b, HDX of amide proton of Thr3, solvent not given): >5 min
